27 molecules from patent US20170022201A1, “MACROCYLIC PYRIDINE DERIVATIVES” (Janssen Pharmaceutica NV, priority 2014, published 2017) can be followed below.

The target of one experiment is T1, EF2K (Homo sapiens, UniProt O00418).
T1 construct: host or cells: LN-229 glioblastoma cell lysate
T1 sequence (O00418 1-725): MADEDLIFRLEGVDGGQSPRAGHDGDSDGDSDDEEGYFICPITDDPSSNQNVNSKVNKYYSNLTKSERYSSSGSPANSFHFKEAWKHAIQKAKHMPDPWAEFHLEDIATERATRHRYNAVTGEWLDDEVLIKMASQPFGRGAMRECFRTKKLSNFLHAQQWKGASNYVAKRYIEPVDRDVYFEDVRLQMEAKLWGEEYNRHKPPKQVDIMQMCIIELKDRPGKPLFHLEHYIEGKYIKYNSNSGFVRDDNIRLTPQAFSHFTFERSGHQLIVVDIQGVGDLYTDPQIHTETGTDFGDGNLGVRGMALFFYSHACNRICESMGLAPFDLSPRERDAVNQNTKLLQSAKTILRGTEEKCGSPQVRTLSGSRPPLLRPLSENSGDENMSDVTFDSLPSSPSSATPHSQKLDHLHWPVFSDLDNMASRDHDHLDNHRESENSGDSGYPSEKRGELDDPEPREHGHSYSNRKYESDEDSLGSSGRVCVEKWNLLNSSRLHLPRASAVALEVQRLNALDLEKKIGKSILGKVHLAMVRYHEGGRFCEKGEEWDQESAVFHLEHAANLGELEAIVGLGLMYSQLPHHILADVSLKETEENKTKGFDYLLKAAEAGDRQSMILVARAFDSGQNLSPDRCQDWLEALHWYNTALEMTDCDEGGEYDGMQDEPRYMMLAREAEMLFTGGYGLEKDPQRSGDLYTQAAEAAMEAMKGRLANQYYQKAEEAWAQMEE
The experiment can be described thus: Biochemical EF2K lysate-based kinase assay (AlphaLISA p-eEF2 Thr56). To be noted: LN-229 cell lysates, 10 mM ATP, pH 6.6; pIC50 = -log IC50 (M); read-out: eEF2K_C_alphalisa pIC50 (converted). The procedure, abridged: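 LN-229 glioblastoma lysate supplied both EF2K and eEF2 substrate; compound incubated with lysate 15 minutes at room temperature at pH 6.6 with 10 mM Mg2+ and 10 mM ATP, then stopped with excess EDTA. Thr56-phosphorylated eEF2 detected by sandwich AlphaLISA, final read after overnight standing.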

Another experiment addresses PIK3C3 lipid kinase (Homo sapiens, UniProt Q8NEB9). The experiment can be described thus: Biochemical Vps34 lipid kinase assay (ADP-Glo). To be noted: 20 μM ATP; for IC50: serial dilution 10 μM to 0.3 nM, pIC50 = -log IC50 (M); for remaining activity at 1 µM: 1 h, read-out: VPS34_1microM_%ofcntrl; for remaining activity at 1 µM / VPS34_1microM_%ofcntrl: single dose 1 μM, residual activity compared to control (DMSO). The protocol:
A non-radiometric kinase assay (ADP-Glo™ Assay, Promega, Madison, Wi, USA) was used for measuring the kinase activity of the PIK3C3 lipid kinase. All kinase assays were performed in 96-well half-area microtiter plates in a 25 μl reaction volume. The reaction cocktail was pipetted in 3 steps in the following order: • 10 μl of ATP solution (in assay buffer, see below) • 5 μl of test sample in 5% DMSO 10 μl of enzyme/substrate mixture
All lipid kinase assays contained 50 mM HEPES (4-(2-hydroxyethyl)-1-piperazineethanesulfonic acid)—NaOH, pH 7.5, 1 mM EGTA ((ethylene glycol tetraacetic acid), 100 mM NaCl, 0.03% CHAPS (3-[(3-Cholamidopropyl) dimethylammonio]-1-propanesulfonate), 2 mM DTT (Dithiothreitol), 20 μM ATP (corresponding to the apparent ATP-Km), kinase (7.6 nM) and substrate (50 μM). The assay for PIK3C3 additionally contained 3 mM MnCl2.
The reaction cocktails were incubated at 30° C. for 60 minutes. The reaction was stopped with 25 μl ADP-Glo™ reagent per well. Plates were incubated for 40 minutes at room temperature, followed by addition of 50 μl kinase detection reagent per well and incubation for 60 minutes at room temperature. Signal was determined with a microplate luminescence reader (Victor, Perkin Elmer). The assay was either performed using a single dose of compound (1 μM final concentration in the assay reaction) with resulting data expressed as residual activity compared to control (DMSO), or using a serial (half-log) dilution of compounds starting at 10 μM and down to 0.3 nM (final concentrations in the assay) with data expressed as the pIC50.

A further experiment has as its target T2, eEF2K (Homo sapiens, UniProt O00418).
T2 construct: in the immortalized epithelial breast cell lines, MCF10A; host or cells: MCF10A immortalized breast epithelial cells
T2 sequence (O00418 1-725): T1 sequence (O00418 1-725)
Kind of experiment: EF2K cell-based assay (P-EF2 AlphaLISA, 2-deoxyglucose stimulated MCF10A cells). To be noted: 2.5 mM 2-deoxyglucose 4 h, phosphorylation of EF2 at Thr 56, pIC50 = -log IC50 (M), read-out: eEF2K_C_PThr56 pIC50 (converted). The procedure, abridged: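 MCF10A cells pretreated with compound for 1 h, then stimulated with 2.5 mM 2-deoxyglucose for 4 h to deplete ATP and activate AMPK. Phospho-EF2 in lysates measured by AlphaLISA.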

Where only a bound is given, the exact number is not on record here.

PIK3C3 lipid kinase, sequence (Q8NEB9 whole entry): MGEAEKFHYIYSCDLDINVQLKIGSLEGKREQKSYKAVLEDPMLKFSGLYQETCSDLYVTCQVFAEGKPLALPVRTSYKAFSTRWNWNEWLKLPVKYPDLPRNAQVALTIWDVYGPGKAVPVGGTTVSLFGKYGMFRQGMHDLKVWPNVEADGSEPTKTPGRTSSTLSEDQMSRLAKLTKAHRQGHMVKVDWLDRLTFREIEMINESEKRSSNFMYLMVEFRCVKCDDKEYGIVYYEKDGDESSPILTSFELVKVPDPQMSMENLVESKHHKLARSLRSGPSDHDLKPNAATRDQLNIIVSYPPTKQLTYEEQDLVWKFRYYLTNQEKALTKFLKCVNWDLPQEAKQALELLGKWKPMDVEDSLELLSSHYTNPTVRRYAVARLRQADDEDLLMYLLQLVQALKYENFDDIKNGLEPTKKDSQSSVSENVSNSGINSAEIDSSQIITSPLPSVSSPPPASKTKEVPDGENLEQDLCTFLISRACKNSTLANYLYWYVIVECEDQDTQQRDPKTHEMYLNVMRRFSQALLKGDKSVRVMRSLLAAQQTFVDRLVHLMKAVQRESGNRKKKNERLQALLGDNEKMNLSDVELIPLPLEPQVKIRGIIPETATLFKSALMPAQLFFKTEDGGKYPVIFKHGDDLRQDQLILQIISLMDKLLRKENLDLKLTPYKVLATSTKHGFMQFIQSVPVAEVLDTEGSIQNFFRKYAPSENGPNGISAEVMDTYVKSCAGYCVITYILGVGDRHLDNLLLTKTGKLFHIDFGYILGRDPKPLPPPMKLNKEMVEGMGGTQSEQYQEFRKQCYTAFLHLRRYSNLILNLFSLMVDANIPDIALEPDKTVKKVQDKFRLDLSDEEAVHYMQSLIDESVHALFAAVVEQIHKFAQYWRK

As for `O=C1NCCCNc2ncc(cn2)-c2ccnc(c2)Nc2cccc(c2)CN2CCN(CC2)C12CC2` [Compound 107], the figures for the IC50 on EF2K, at PIK3C3 lipid kinase and on eEF2K were 6.76e-09 M, 3.31e-07 M and 3.55e-07 M, respectively.
For `O=C1NCCCNc2ncc(cn2)-c2ccnc(c2)Nc2cccc(c2)CN2CCN(CC2)C12COC2` [Compound 10], the IC50 on EF2K is 2.19e-08 M; against PIK3C3 lipid kinase, 4.57e-07 M; at eEF2K, 1.48e-06 M. Further, on PIK3C3 lipid kinase, the remaining activity at 1 µM was 18.6%.
As to `CNC(=O)C1CCNC(=O)CN2CCN(CC2)Cc2cccc(c2)Nc2cc(ccn2)-c2cnc(nc2)N1` (centres unmarked) [Compound 122], the IC50 on EF2K is 1.91e-05 M; at eEF2K it was 1.41e-05 M. Further, the remaining activity at 1 µM at PIK3C3 lipid kinase was 39.5%.
Consider `O=C1NCCC2CC(O)CN2c2ncc(cn2)-c2ccnc(c2)Nc2cccc(c2)CN2CCN(CC2)C12CC2` (centres unmarked) [Compound 57], for which the IC50 on EF2K was 1.02e-08 M; against PIK3C3 lipid kinase, 5.01e-06 M; on eEF2K, 3.09e-07 M.
In the case of `CC1CN2Cc3cccc(c3)Nc3cc(ccn3)-c3cnc(nc3)NCCCNC(=O)CN1CC2C` (centres unmarked) [Compound 35], the IC50 was 6.46e-08 M at EF2K, 2.95e-07 M against PIK3C3 lipid kinase and 2.45e-07 M at eEF2K. Further, the remaining activity at 1 µM at PIK3C3 lipid kinase stood at 20.9%.
`O=C1NCCC2CC(O)CN2c2ncc(cn2)-c2ccnc(c2)Nc2cccc(c2)CN2CCN(CC2)C12CC2` (centres unmarked) [Compound 56]: the IC50 at EF2K is 3.39e-09 M; against PIK3C3 lipid kinase, 2.63e-07 M; on eEF2K, 3.02e-07 M.
Consider `[N-]=[N+]=N[C@H]1C[C@H]2CCNC(=O)C3(CC3)N3CCN(CC3)Cc3cccc(c3)Nc3cc(ccn3)-c3cnc(nc3)N2C1` [Compound 83], for which the IC50 at EF2K is 8.71e-09 M; at eEF2K it was 6.61e-07 M. Also, the remaining activity at 1 µM on PIK3C3 lipid kinase was found to be 42.3%.
As for `O=C1CN2CCN(CC2)Cc2cccc(c2)Nc2cc(ccn2)-c2cnc(nc2)NCCCN1` [Compound 33], the IC50 on EF2K was about 2.19e-08 M; against PIK3C3 lipid kinase, 2.19e-07 M; on eEF2K it was about 7.94e-07 M.
Take `O=C1CN2CCN(CC2)Cc2cccc(c2)Nc2cc(ccn2)-c2cnc(nc2)NC(C(=O)O)CCN1` (centres unmarked) [Compound 120]: the IC50 was 6.31e-07 M on EF2K, 2.95e-07 M against PIK3C3 lipid kinase and over 3.02e-05 M on eEF2K. This molecule also came in with a VPS34_1microM_%ofcntrl on PIK3C3 lipid kinase of 23.74%.
Consider `CN1CCCNc2ncc(cn2)-c2ccnc(c2)Nc2cccc(c2)CN2CCN(CC2)CC1=O` [Compound 13], for which the results for the IC50 on EF2K and on eEF2K were 6.46e-07 M and 9.12e-06 M, respectively. Also, the remaining activity at 1 µM on PIK3C3 lipid kinase is 34.9%.
In the case of `CN1c2cccc(c2)Nc2cc(ccn2)-c2cnc(nc2)NCCCNC(=O)CN2CCC1CC2` [Compound 101], the IC50 was 2e-07 M on EF2K and 3.98e-06 M at eEF2K. Further, the remaining activity at 1 µM at PIK3C3 lipid kinase was found to be 31.1%.
As to `O=C1CN2CCN(CC2)Cc2cccc(c2)Nc2cc(ccn2)-c2cnc(nc2)N2CC(O)CC2CCN1` (centres unmarked) [Compound 54], the IC50 is 1.1e-08 M at EF2K, 9.77e-06 M at PIK3C3 lipid kinase and 7.94e-07 M at eEF2K.
On the same counts, the results for `O=C1CN2CC3CCC2CN3Cc2cccc(c2)Nc2cc(ccn2)-c2cnc(nc2)NCCCN1` (single isomer, unassigned) [Compound 25] are 2.34e-06 M, 6.03e-07 M and over 1e-05 M.
Take `O=C1CN2CCN(Cc3cccc(c3)Nc3cc(ccn3)-c3cnc(nc3)NCCCN1)C(CO)C2` (single isomer, unassigned) [Compound 8]: the IC50 at EF2K is 4.17e-08 M; against PIK3C3 lipid kinase it was 1.66e-07 M; on eEF2K, 2.57e-06 M. Also, the VPS34_1microM_%ofcntrl on PIK3C3 lipid kinase came to 9.64%.
For the molecule `CC1c2cccc(c2)Nc2cc(ccn2)-c2cnc(nc2)NCCCNC(=O)C2(CC2)N2CCN1CC2` (single isomer, unassigned) [Compound 23], the IC50 is 9.55e-08 M at EF2K, 1.74e-06 M on PIK3C3 lipid kinase and about 2.95e-06 M at eEF2K.
Take `NC(=O)C1CCNC(=O)CN2CCN(CC2)Cc2cccc(c2)Nc2cc(ccn2)-c2cnc(nc2)N1` (centres unmarked) [Compound 121]: the IC50 on EF2K is 5.13e-06 M; on PIK3C3 lipid kinase it was 2.63e-06 M; on eEF2K, over 1e-05 M.
Consider `NC1CC2CCNC(=O)CN3CCN(CC3)Cc3cccc(c3)Nc3cc(ccn3)-c3cnc(nc3)N2C1` (centres unmarked) [Compound 84], for which the IC50 was 7.24e-08 M on EF2K, 3.24e-07 M at PIK3C3 lipid kinase and 1.02e-06 M on eEF2K. Further, at PIK3C3 lipid kinase, the remaining activity at 1 µM worked out at 21.6%.
Regarding `COC(=O)C1CCNC(=O)CN2CCN(CC2)Cc2cccc(c2)Nc2cc(ccn2)-c2cnc(nc2)N1` (centres unmarked) [Compound 116], the IC50 on EF2K is 2.69e-06 M; on eEF2K, 1.91e-05 M. The remaining activity at 1 µM at PIK3C3 lipid kinase came to 33.5%.
`O=C1CN2CCN(CC2)Cc2cccc(c2)Nc2cc(ccn2)-c2ccc(nc2)NCCCN1` [Compound 67]: the IC50 was about 3.55e-07 M on EF2K and 3.98e-06 M at eEF2K. In addition, on PIK3C3 lipid kinase, the remaining activity at 1 µM is 34%.
For `CC1CN2CCN1Cc1cccc(c1)Nc1cc(ccn1)-c1cnc(nc1)NCCCNC(=O)C2` (centres unmarked) [Compound 40], the IC50 was 1.62e-07 M on EF2K, 2.63e-07 M on PIK3C3 lipid kinase and about 5.89e-06 M at eEF2K. Also, the remaining activity at 1 µM on PIK3C3 lipid kinase came to 11%.
Consider `CC1c2cccc(c2)Nc2cc(ccn2)-c2cnc(nc2)N2CC(O)CC2CCNC(=O)C2(CC2)N2CCN1CC2` (single isomer, unassigned) [Compound 66], for which the IC50 on EF2K is 6.17e-08 M; against PIK3C3 lipid kinase it was 1.12e-06 M; at eEF2K, 9.12e-07 M.
Consider `O=C1CN2CCN(CC2)Cc2cccc(c2)Nc2cc(ccn2)-c2cnc(nc2)N2CC(O)CC2CCN1` (centres unmarked) [Compound 55], for which the IC50 on EF2K is 8.51e-09 M; against PIK3C3 lipid kinase, 5.5e-07 M; at eEF2K it was 7.76e-07 M. In addition, the remaining activity at 1 µM on PIK3C3 lipid kinase amounted to 29.6%.
`CNC(=O)C1CCNC(=O)CN2CCN(CC2)Cc2cccc(c2)Nc2cc(ccn2)-c2cnc(nc2)N1` (single isomer, unassigned) [Compound 124]: the IC50 is 3.98e-07 M at EF2K and about 2.51e-05 M on eEF2K. In addition, the remaining activity at 1 µM on PIK3C3 lipid kinase came out at 65.5%.
Take `CN1CCN(CCCO)c2ncc(cn2)-c2ccnc(c2)Nc2cccc(c2)CN2CCN(CC2)CC1=O` [Compound 17]: the IC50 at EF2K and on eEF2K was over 3.02e-05 M each time. Moreover, the remaining activity at 1 µM at PIK3C3 lipid kinase was determined as 62.4%.
On to `CN1CCCN(C)c2ncc(cn2)-c2ccnc(c2)Nc2cccc(c2)CN2CCN(CC2)CC1=O` [Compound 38], for which the values for the IC50 on EF2K and on eEF2K were 8.51e-08 M and over 3.02e-05 M, respectively. For the same molecule, on PIK3C3 lipid kinase, the remaining activity at 1 µM was determined as 43.3%.
For `O=C1NCCCNc2ncc(cn2)-c2ccnc(c2)Nc2cccc(c2)NC2CCN(CC2)C12CC2` [Compound 100], the IC50 was 6.17e-08 M at EF2K, 3.55e-07 M at PIK3C3 lipid kinase and 2.75e-06 M on eEF2K. Also, at PIK3C3 lipid kinase, the remaining activity at 1 µM came to 14.9%.
For the molecule `O=C1CN2CCN(Cc3cccc(c3)Nc3cc(ccn3)-c3cnc(nc3)N3CCCC3CCN1)C(CO)C2` (centres unmarked) [Compound 44], the IC50 at EF2K is 2.45e-08 M; on PIK3C3 lipid kinase, 1.55e-06 M; at eEF2K, 8.71e-06 M.
